How the values were obtained:
[1] = test system: human forearm skin; assay: Inhibition of skin irritation induced by 24-hour occlusion with benzalkonium chloride; format: in vivo; settings: 0.01% (100 micrograms/milliliter) co-administered with 0.4% benzalkonium chloride, volar forearm, FIG. 5
Excerpt: The anti-irritant activity of purified Tasselin A has been assessed by determining its ability to inhibit skin irritation induced by 24-hour occlusion of human forearm skin with a solution of 0.4% benzalkonium chloride (BC) with or without inclusion of 0.01% (100 micrograms/milliliter) of purified Tasselin A. FIG. 5 is a photograph of the volar surface of a subject forearm immediately after removal of the occlusive dressing. There are two circled skin areas: A) control site, and B) test site.

[2] = Solubility; format: physicochemical; settings: water, methanol/ethanol
Excerpt: There is also disclosed here a method of making a cosmetic ingredient with the chemical composition and structure of 4-hydroxy-oxindole-3-acetic acid. The chemical compound was identified in extracts of corn tassels. In particular, seasonally aromatic corn tassels were harvested as previously described in U.S. Pat. No. 7,399,493 with particular attention to harvesting the tassel at the peak time of aroma production. They were collected simply by shaking the tassels directly into collecting sacks conveyed to the laboratory where they are immersed directly into ice-cold absolute alcohol and extracted for 24-48 hours at 0-4° C. Crude alcohol extracts have a light green color and a fragrance reminiscent of bee's wax. The extract is further clarified low speed centrifugation followed by filtration through a 0.4 micron nitrocellulose filter and the resulting sterile solution stored at −20° C. until further needed or then concentrated by vacuum rotary evaporation to obtain a slightly viscous mass. This material served as the starting point for chemical analysis. Dilutions of the ice-cold crude extract was submitted to preliminary assessment of its anti-oxidant activity. High pressure liquid chromatography (HPLC) was employed to determine the principle phenolic components of the tassel extract. […]

[3] = Storage stability of lyophilized powder; format: physicochemical; settings: milligram quantities, under vacuum
Excerpt: Given these physical properties, Tasselin A has been formulated in both lotion and cream as described in the Tables III, IV, and V below.

[4] = DPPH* free-radical scavenging assay; settings: 100 microgram per milliliter in ethanol; FIG. 4
Method: Purified Tasselin A has been assayed and determined its free-radical scavenging activity. FIG. 4 present typical results of standardized 1,1-diphenyl-2-picrylhydrazyl radical (DPPH*) reagent test as previously described (Bonina et al, 2002). This test was previously disclosed and employed on crude corn tassel alcoholic extracts (Wille J J: U.S. Pat. No. 7,399,439). Here we confirm that purified Tasselin A has potent antioxidant activity. A 1.0 mg/ml stock solution of purified Tasselin A in ethanol was diluted with anhydrous ethanol to a final concentration of 100 microgram per milliliter and assayed in the DPPH* free-radical scavenging assay.

[5] = test system: mushroom tyrosinase enzyme; assay: Anti-tyrosinase activity assay; format: biochemical; settings: 150 microgram/ml, 30 minute test end-point; FIG. 7
Method: For this purpose, a modified assay method of anti-tyrosinase activity described in the literature was employed (Chang T S and Tseng M J., Mar. Sci. Technol., 14: 190-193, 2006). The assay employs mushroom tyrosinase enzyme to enzymatically convert a colorless solution tyrosine to a black melanin product. The anti-tyrosinase activity is measured by the reduction of black color development in the presence of the inhibitor, which in this instance is Tasselin A. FIG. 7 is a graph showing the inhibiting effect of two different concentrations of purified Tasselin A on tyrosinase activity as 50% reduction at a concentration of 150 microgram/ml over the 30 minute test end-point.

- solubility [2]: both water and methanol/ethanol soluble
- reduction of tyrosinase activity [5]: 50%
Compound: O=C(O)CC1C(=O)Nc2cccc(O)c21 (centres unmarked) [Tasselin A, 2,3-dihydro-4-hydroxy-2-oxo-1H-indole-3-acetic acid]
- visual scoring of skin irritation (swelling, erythema) at test site [1]: no swelling or redness
- storage as dry powder [3]: successfully lyophilized and stored as a dry powder under vacuum for up to a year
- reduction in absorbance measured at 595 nm [4]: 40%

— patent US20100158842A1, “NATURAL SKIN WHITENER: 4-HYDROXY-OXINDOLE-3-ACETIC ACID” (SPECTRUM DYNAMICS LLC, priority 2008, published 2010)
